The values that follow come from PMC12693419, “Design, Synthesis, Biological Evaluation, and In Silico Studies of Novel Multitarget Cinnamic Acid Hybrids” (Molecules, 2025).

Series [1] has as its system HeLa cells. Kind of series: MTT viability assay. The series is classed as cell-based. Particulars: Homo sapiens; for EC50: 48 h. As for the experimental part: (§1) HeLa, MCF-7, U251, U87, MDA-MB-435, and MDA-MB-231 cancer cell lines were maintained in incubators at 37 °C with 5% CO2 in DMEM medium supplemented with 10% (v/v) fetal bovine serum (FBS) and antibiotics/antimycotics. All cell lines used in this study originate from the Laboratory of Biochemistry, Department of Chemistry, Aristotle University of Thessaloniki. They are low-passage, mycoplasma-free cancer cell lines that have been extensively used over the past 25 years in numerous studies across various fields of cancer research, including drug cytotoxicity testing.
(§2) All cell lines tested were seeded in 96-well plates at a concentration of 6 × 10^3 cells per well, except HeLa, which were seeded at 3 × 10^3 cells per well. The day after, cells were exposed to increasing concentrations of the compounds for 48 h. Cell viability was determined using the 3-(4,5-dimethylthiazol-2-yl)-2,5-diphenyltetrazolium bromide (MTT) assay, a colorimetric assessment of cellular metabolic activity as described previously. Absorbance values from treated samples were normalized to those of untreated controls, which were assigned to a 100% viability value.

For series [2], the target named is T1, bovine serum albumin (Bos taurus, UniProt P02769).
T1 construct: bovine serum albumin solution (fraction V); purchased Merck and Sigma-Aldrich; host or cells: bovine serum (fraction V)
Kind of series: In vitro inhibition of albumin denaturation. Conditions: heat denaturation, 60 °C 10 min. As for the experimental part: The ability of a compound to inhibit the thermal denaturation of albumin is considered an indicator of anti-inflammatory activity. Heat exposure simulates conditions of cellular stress or inflammation, during which protein and tissue damage occur. Certain substances can protect proteins from denaturation upon heating by stabilizing their structure and preventing aggregation and precipitation.
Inhibition of albumin denaturation was measured following the reported method. In a test tube, 1 mL of bovine serum albumin solution (fraction V, 1% w/v in phosphate buffer, pH 7.4) and 100 μL of the test compound solution were added sequentially. The mixture was incubated at 37 °C for 15 min, followed by heating at 60 °C for 10 min. After cooling to room temperature, the absorbance was measured at 660 nm. DMSO was used as the blank, and the results were compared to acetylsalicylic acid, which served as the reference compound (Table 6).

For series [3], the target named is T2, COX-1 (Homo sapiens, UniProt P23219).
T2 construct: purchased Merck and Sigma-Aldrich
The series can be described thus: In vitro inhibition of COX-1. The series is classed as biochemical. The source says:
Enzyme inactivation can occur due to the accumulation of hydroperoxides formed from arachidonic acid or other fatty acid substrates. In order to prevent this in the in vitro experiment used for testing COX inhibition activity of the new molecules, a co-substrate like N,N,N′,N′-tetramethyl-p-phenylenediamine (TMPD) is included, as it undergoes co-oxidation by PGG2. The oxidized TMPD has a maximum absorbance at 590 nm. COX enzymes also depend on heme (Fe^3+-protoporphyrin IX) as a cofactor, which can dissociate during purification. To ensure maximum enzyme activity, heme is added to the reaction mixture during the in vitro assay for ovine COX-2 inhibition and COX-1 inhibition.
Cyclooxygenase (COX) activity was measured using arachidonic acid (AA) as the substrate and N,N,N′,N′-tetramethylphenylenediamine (TMPD) as the co-substrate following the reported method. […] The substrate oxidation was monitored at room temperature by recording the increase in absorbance at 590 nm. Absorbance due to the spontaneous oxidation of TMPD was subtracted from the initial oxidation rate observed in the presence of AA. The inhibitory activity of the test compounds at a concentration of 100 μM was evaluated after a 6-min pre-incubation with the enzyme in the presence of heme and TMPD.

Series [4] is described as follows: In vitro inhibition of linoleic acid lipid peroxidation (AAPH). Conditions: 100 μM; anti-lipid peroxidation. From the text:
In the present study, the aim was to evaluate the anti-lipid peroxidation activities of the synthesized compounds 5a–i, 6a–i, 9a–i, and 11 and compare their efficacy to that of Trolox, a well-known antioxidant. Using the water-soluble compound 2,2′-azobis(2-amidinopropane) hydrochloride (AAPH), peroxyl radicals are generated through spontaneous thermal decomposition in vitro. This experimental setup imitated the lipid peroxidation processes occurring in cells due to radical activity allowing the investigation of the effectiveness of the tested compounds under conditions resembling cellular oxidative stress.
An in vitro assay was performed following previously established protocols. The compound 2,2′-Azobis(2-methylpropionamidine) dihydrochloride (AAPH) was used as a controlled source of thermally generated alkylperoxy free radicals. The formation of conjugated diene hydroperoxides through the oxidation of sodium linoleate in an aqueous dispersion at 37 °C was measured by monitoring absorbance at 234 nm. The results were compared with the reference compound, Trolox (93%) (Table 6).

Series [5] relates to MCF-7 cells. The series can be described thus: MTT viability assay. Conditions: Homo sapiens, MCF7, 48 h. The series is classed as cell-based. How it is done:
as §1, §2

Series [6] addresses T3, ovine COX-2 (Ovis aries, UniProt P79208).
T3 sequence (P79208 17-603): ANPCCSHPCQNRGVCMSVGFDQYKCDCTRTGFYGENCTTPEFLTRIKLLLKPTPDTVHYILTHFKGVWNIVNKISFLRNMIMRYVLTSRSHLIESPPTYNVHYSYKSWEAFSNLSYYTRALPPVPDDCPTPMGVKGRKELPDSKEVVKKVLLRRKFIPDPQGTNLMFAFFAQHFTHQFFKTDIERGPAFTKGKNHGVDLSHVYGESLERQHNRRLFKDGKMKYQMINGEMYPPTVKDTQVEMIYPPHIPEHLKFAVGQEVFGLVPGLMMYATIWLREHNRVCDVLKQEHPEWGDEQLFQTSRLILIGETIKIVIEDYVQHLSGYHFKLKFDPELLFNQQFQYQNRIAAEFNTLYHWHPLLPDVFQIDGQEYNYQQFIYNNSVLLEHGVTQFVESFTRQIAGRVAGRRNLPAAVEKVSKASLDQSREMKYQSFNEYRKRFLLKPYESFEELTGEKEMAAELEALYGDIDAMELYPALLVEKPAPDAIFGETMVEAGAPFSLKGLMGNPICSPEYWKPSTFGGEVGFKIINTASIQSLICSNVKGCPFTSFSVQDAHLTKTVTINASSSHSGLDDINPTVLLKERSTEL
The series can be described thus: In vitro inhibition of ovine cyclooxygenase-2.

Series [7] deals with T4, soybean lipoxygenase isoenzyme-1 (SLOX-1) (Glycine max, UniProt P08170).
T4 construct: purchased Merck and Sigma-Aldrich
T4 sequence (P08170 1-839): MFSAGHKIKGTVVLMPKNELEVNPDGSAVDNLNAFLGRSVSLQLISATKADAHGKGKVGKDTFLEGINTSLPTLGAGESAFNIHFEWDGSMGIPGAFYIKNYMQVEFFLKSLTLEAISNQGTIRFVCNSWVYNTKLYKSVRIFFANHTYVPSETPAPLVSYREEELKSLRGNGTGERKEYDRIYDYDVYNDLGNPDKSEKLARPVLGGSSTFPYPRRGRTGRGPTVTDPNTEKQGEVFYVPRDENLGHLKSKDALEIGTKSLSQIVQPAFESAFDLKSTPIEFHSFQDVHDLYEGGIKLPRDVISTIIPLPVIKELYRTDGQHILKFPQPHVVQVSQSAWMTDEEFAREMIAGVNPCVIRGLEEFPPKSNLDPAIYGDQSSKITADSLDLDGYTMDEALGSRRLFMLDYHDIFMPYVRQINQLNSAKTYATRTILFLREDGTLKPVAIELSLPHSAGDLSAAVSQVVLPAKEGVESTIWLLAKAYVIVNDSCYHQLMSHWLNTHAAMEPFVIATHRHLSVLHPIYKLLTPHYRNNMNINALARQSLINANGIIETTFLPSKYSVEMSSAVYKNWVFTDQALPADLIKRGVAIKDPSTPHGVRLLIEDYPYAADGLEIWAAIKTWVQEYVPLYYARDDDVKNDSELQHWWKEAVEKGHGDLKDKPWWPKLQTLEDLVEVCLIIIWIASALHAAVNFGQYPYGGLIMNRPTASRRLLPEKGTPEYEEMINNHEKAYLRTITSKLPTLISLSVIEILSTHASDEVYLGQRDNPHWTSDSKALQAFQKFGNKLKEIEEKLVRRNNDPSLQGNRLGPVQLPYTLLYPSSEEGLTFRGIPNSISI
Kind of series: In vitro inhibition of soybean lipoxygenase. The series is classed as biochemical. As for the experimental part:
In vitro anti-LOX activities were evaluated using soybean lipoxygenase isoenzyme-1 (SLOX-1), a commonly used model for mammalian LOXs.
An in vitro study was conducted following a previously reported method. The tested compounds were dissolved in DMSO (100 µM) and incubated at room temperature with 0.1 mL of sodium linoleate as the substrate and 0.2 mL of soybean lipoxygenase solution in Tris-HCl buffer (pH 9.0).

A short description of series [8]: In vitro determination of NO release with Griess reagent. Particulars: 100 μM, L-cysteine, pH 7.4, 37 °C, 60 min. From the text: This assay evaluates the ability of nitrate esters to release nitric oxide (NO). First, sodium nitroprusside (SNP) reacts with the thiol compound, cysteine, which serves as a reducing agent (Scheme 5). The thiol donates electrons, facilitating the breakdown of the nitroprusside complex. Afterwards, the reaction leads to the formation of intermediate complexes, such as nitrosothiol species and the decomposition of these intermediates results in the release of nitric oxide (NO). According to the literature, measurements are conducted both in the presence and absence of the thiol agent, cysteine. No significant difference was observed between the two experimental conditions, and the results were reproducible. Sodium nitroprusside (SNP) was used as the reference compound [65].
The compounds (from a 10 mM stock solution in DMSO, final concentration 100 μM) are added (20 μL) to each test tube. Then, 2 mL of phosphate buffer solution (pH 7.4) is added. L-cysteine, used as the thiol agent, is added to the mixture at a final concentration of 0.5 mM. The solution is incubated at 37 °C for 60 min, after which 1 mL is removed and mixed with 250 μL of Griess reagent (4 g sulfanilamide, 0.2 g N-(1-naphthyl)-ethylenediamine dihydrochloride, and 10 mL of H3PO4 solution, final volume adjusted to 100 mL). The mixture is allowed to stand for 10 min at room temperature, and the absorbance of the produced compound is measured at 540 nm. Sodium nitroprusside (SNP) is used as the reference compound. The results are presented as the release of NO2^− (% NO2^− (mol/mol)) induced by the compounds in the presence of L-cysteine (Table 6).

T1 sequence (P02769 25-607): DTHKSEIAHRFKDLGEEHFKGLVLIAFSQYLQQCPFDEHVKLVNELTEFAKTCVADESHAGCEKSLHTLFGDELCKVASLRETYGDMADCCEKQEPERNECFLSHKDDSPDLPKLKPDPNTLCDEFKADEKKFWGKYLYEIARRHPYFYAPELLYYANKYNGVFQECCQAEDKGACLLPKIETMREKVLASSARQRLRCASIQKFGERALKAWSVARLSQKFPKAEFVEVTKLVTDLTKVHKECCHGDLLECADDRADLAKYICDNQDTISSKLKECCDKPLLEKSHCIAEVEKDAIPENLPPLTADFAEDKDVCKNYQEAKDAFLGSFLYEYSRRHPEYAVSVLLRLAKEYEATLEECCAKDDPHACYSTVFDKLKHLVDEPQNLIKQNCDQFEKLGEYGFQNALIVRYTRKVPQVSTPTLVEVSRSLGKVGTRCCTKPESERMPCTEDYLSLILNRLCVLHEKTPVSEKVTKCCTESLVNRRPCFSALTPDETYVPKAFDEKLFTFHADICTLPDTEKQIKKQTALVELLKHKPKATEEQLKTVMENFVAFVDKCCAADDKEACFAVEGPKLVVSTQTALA
T2 sequence (P23219 24-599): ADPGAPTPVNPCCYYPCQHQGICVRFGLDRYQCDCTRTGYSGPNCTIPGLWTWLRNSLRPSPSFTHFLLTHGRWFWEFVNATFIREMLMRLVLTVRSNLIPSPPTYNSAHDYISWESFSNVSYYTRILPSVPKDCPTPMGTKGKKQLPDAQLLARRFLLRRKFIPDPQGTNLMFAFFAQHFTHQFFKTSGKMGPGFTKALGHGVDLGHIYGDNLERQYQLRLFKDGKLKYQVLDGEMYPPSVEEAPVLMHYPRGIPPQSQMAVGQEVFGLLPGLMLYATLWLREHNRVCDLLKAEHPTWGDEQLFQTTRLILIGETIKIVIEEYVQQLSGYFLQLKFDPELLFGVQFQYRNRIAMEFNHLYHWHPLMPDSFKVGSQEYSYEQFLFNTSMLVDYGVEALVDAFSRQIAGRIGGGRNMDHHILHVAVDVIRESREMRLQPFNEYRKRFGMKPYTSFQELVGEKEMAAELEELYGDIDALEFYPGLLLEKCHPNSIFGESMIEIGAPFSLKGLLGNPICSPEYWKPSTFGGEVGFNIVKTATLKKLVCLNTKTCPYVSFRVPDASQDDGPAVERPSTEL

As for `COc1cccc2c1C(=O)c1c(O)c3c(c(O)c1C2=O)C[C@@](O)(C(=O)CO)C[C@@H]3O[C@H]1C[C@H](N)[C@H](O)[C@H](C)O1` [doxorubicin, reference compound], the IC50 in series [1] (48 h of exposure, read-out: IC50 in HeLa cells (positive control)) is about 500 nM.

In the case of `O=C(OCc1c(-c2ccccc2)no[n+]1[O-])/C(=C/c1cccs1)c1ccccc1` [Compound 9i, (E)-4-Phenyl-3-(((2-phenyl-3-(thiophen-2-yl)acryloyl)oxy)methyl)-1,2,5-oxadiazole 2-oxide], in series [2], the “Albumin (inhibition of albumin denaturation)” value was “no”. Also, the inhibition at 100 µM in series [3] came out at 49%. The “AAPH Inh. at 100 μΜ” value in series [4] is “no”. Moreover, the EC50 was over 100 µM in series [5] and 56 µM in series [1]. In series [6], this compound displayed an IC50 of 70 µM. Also, the “LOX Inh. IC50” value in series [7] (pH 9.0) is “no”.

Take `O=C(OCc1c(-c2ccccc2)no[n+]1[O-])/C(=C/c1ccccc1)c1ccccc1` [Compound 9g, (E)-3-(((2,3-Diphenylacryloyl)oxy)methyl)-4-phenyl-1,2,5-oxadiazole 2-oxide]: the “Albumin (inhibition of albumin denaturation)” value in series [2] is given as “no”. Further, in series [4], the “AAPH Inh. at 100 μΜ” value worked out at 90%. For the same compound, in series [8], the “%NO2^− Release mol/mol at 100 μΜ” value came out at 3%. The results for the EC50 in series [5] and in series [1] were over 100 µM and 46.6 µM, respectively. In addition, the “COX-2 Inh. IC50” value in series [6] is reported as “no”. For the same compound, in series [7] (pH 9.0, read-out: LOX Inh. IC50), the concentration for half-maximal inhibition (IC50) came to 55.5 µM.
